One molecule from article PMC10782225 (The FASEB Journal, 2023) can be followed below.

This experiment deals with T1, unaltered α7β2‐nAChR (Homo sapiens, UniProt P17787+P36544).
T1 construct: expressed in transfected cells; host or cells: Xenopus laevis oocytes, cRNA injection
Description: ACh concentration‐response curve, TEVC, unaltered α7β2‐nAChR. The experiment is classed as cell-based. Conditions: mean ± SEM of 15–19 oocytes. An excerpt:
Stimulations lasted 3 s, and were applied sequentially, 60 s apart.

T1 sequence (P36544 23-502): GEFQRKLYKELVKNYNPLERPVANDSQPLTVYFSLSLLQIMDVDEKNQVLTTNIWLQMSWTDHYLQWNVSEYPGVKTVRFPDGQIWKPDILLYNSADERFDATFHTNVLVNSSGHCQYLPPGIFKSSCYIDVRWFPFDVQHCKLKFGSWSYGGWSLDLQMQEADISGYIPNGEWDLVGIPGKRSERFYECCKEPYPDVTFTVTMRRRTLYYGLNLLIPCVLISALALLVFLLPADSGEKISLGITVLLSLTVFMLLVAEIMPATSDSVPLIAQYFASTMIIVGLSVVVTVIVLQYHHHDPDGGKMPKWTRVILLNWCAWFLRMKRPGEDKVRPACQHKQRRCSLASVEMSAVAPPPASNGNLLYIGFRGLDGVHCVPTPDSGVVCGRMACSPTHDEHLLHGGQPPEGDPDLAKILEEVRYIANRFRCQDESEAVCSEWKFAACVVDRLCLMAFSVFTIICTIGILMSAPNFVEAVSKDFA
T1 sequence (P17787 26-502): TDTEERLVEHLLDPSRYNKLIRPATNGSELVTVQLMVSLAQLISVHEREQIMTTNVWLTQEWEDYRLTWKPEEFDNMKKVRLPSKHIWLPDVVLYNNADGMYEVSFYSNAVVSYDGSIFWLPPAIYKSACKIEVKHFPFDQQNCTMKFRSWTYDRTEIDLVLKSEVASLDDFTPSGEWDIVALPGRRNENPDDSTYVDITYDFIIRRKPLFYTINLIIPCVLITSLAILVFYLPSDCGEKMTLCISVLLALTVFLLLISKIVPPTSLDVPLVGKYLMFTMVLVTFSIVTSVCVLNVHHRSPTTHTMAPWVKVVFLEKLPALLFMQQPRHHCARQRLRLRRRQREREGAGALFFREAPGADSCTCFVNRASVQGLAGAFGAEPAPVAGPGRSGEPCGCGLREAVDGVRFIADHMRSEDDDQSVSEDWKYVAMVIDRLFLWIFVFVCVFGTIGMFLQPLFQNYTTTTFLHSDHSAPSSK

For the molecule `CC(=O)OCC[N+](C)(C)C` [ACh, acetylcholine], the “Imax, maximum function induced by ACh, unaltered α7β2‐nAChR” value (ACh 10 μM – 10 mM, half‐log steps, 3 s, 60 s apart) came out at 1353 ± 149 nA. The “hillslope (nH), unaltered α7β2‐nAChR” value (logistic fit per oocyte) turned out to be 1.03 ± 0.07.
